“And” between values parts separate entries of the source, which are not always exact repeats. Identical values can stand only once. “Also recorded” adds a separate entry of the source.
What was measured:
[1] = test system: CD4^+CD25^high regulatory T cells; assay: MTT cytotoxicity assay on isolated regulatory T cells; assay type: cell-based, human
Protocol: […] The formazan crystals were solubilized by adding 100 μL isopropanol/0.1 M hydrochloric acid and incubating at 37° C. for 2 hours. The absorbance of the formazan product was measured on an enzyme-linked immunosorbent assay (ELISA) plate reader at 570 nm.
Interferon-γ and IL-4 ELISPOT analyses were performed using PBMC obtained prior to, during, and after vaccination. PBMC were cultured overnight in complete RPMI 1640 medium. CD4^+ and CD8^+ T cells were isolated from PBMC by negative depletion (Miltenyi). After blocking, 1×10^5 T cells and 1×10^4 RNA-transfected DC were added to each well of 96-well nitrocellulose plates (Multiscreen-IP, Millipore) precoated with 2 μg/ml Interferon-γ capture antibody (Endogen) or with IL-4 capture antibody (BD Biosciences Pharmingen). Plates were incubated for 20 hours at 37° C., and biotinylated Interferon-γ detection antibody (Endogen) or biotinylated IL-4 antibody (BD Biosciences Pharmingen) was added to each well. Cells were then incubated for an additional two hours at room temperature, then with streptavidin-alkaline phosphatase (1 μg/ml; Sigma) and plates were developed with substrate (Kirkegaard & Perry Laboratories). After washing, spots were counted using an automated ELISPOT reader (Carl Zeiss). CTL assays were performed by coculturing RNA-transfected DC with autologous PBMC. Cells were restimulated once and IL-2 (20 units/ml) was added after five days and every other day thereafter. After 12 days of culture, effector cells were harvested. Target cells were labeled with 100 μCi of Na2[^51CrO4] (NEN) in 200 μl of complete RPMI 1640 for one hour at 37° C. in 5% CO2 and ^51Cr-labeled target cells were incubated in complete RPMI 1640 medium with effector cells for five hours at 37° C. Then, 50 μl of supernatant was harvested, and release of ^51Cr was measured with a scintillation counter. For proliferation assays, purified CD3^+ T cells were seeded into round-bottomed microplates in the presence of mRNA-transfected DC. […] Incorporation of thymidine was determined using a liquid scintillation counter.

[2] = test system: CD4^+ T-cell populations with increasing densities of CD25; assay: 7-AAD staining of CD4+ T-cell populations; assay type: cell-based, human
[3] = test system: responder cells (PBMC) in MLR; assay: Allogeneic DC-stimulated mixed lymphocyte reaction (MLR) proliferation; assay type: cell-based, human
[4] = test system: CD4^+/CD25^+ T cells of study subjects; assay: Treg functional evaluation (suppression of anti-CD3/CD28 activated indicator T cells); assay type: in vivo, human; conditions: CD4^+/CD25^+ T cells isolated prior to vs 4 days after treatment
Protocol: The suppressive activity of Treg isolated from PBMC of study subjects prior to and 4 days after […] administration was analyzed, as described previously^25. CD4^+/CD25^+ T cells were isolated from the PBMC of study subjects using magnetic bead separation techniques. Cells were washed with PBS, resuspended in complete RPMI 1640 medium, and placed into 96-well round bottom plates pre-coated with anti-CD3/CD28 antibodies (0.4 μg/well) (Caltag). CD4^+/CD25^− cells were plated at 2.0×10^4/well alone or in combination with CD4^+/CD25^+ cells in triplicate wells at a ratio of 1:2 (CD4^+/CD25^−:CD4^+CD25^+). On day 5, 1 μCi of ^3H thymidine was added for the final 16 hr of the cultures. Cells were then harvested on glass fiber filters and assessed for uptake of radiolabeled thymidine.

[5] = test system: CD3+, CD4+, CD8^+ T cells, B cells, monocytes/macrophages, NK cells; assay: Relative numbers of leukocyte subsets before and after DAB389IL-2; assay type: in vivo, human
Protocol: Using these methods, the degree of regulatory T cell depletion efficacy in the four subjects treated on the clinical protocol was determined.

tumor-specific T cells = assay: Interferon-γ ELISPOT of vaccine-induced tumor-specific T cells in patients; assay type: in vivo, human
Protocol: PBMC were cultured overnight in RPMI 1640 medium supplemented with 10% FCS. […] After washing, spots were counted using an automated Zeiss KS Elispot Compact reader (Carl Zeiss Inc., Minneapolis, Minn.).
In order to determine whether DAB389IL-2-mediated regulatory T cell depletion is capable of augmenting vaccine-induced CTL responses in vivo, Interferon-γ ELISPOT analysis was used to determine the frequencies of vaccine-induced, tumor-specific T cells from PBMC samples collected prior to (white bars) and two weeks after (grey bars) the third vaccination (study week 8). Purified CD8^+ T cells were isolated from pre- and post-vaccination PBMCs and were cultured overnight with tumor RNA transfected DC targets. As controls, PBMC RNA or benign renal epithelium (RE)-derived RNA-transfected DCs were used for short-term antigenic stimulation. Visible spots were then counted using an automated ELISPOT reader. […] In contrast, a significant increase of tumor-specific T cells was consistently observed in the treated subjects after vaccination. […]
Pre- and post-treatment T-cell analysis was performed by Interferon-γ ELISPOT on all patients who completed immunotherapy. Increases of antigen-specific CD4^+ and CD8^+ T cells after vaccination were compared using the Wilcoxon matched-pairs signed rank test, analyzing the null hypothesis that the rates of change in T-cell response were equivalent prior to and after therapy. A two-sided p-value of <0.05 was considered statistically significant.
In order to determine whether DAB389IL-2-mediated Treg depletion is capable of augmenting vaccine-induced CD8^+ and CD4^+ T-cell responses in cancer patients, Interferon-γ ELISPOT analyses were performed to determine the frequencies of vaccine-induced, tumor-specific T cells from PBMC samples collected before and two weeks after the third vaccination. CD8^+ and CD4^+ T cells were isolated from pre- and post-vaccination PBMC and cultured overnight with tumor RNA-transfected DC targets. As controls, autologous PBMC RNA or autologous benign renal epithelium (RE)-derived RNA-transfected DC were used for short-term antigenic stimulation. As exemplified by the 3 study subjects shown in FIG. 10A, only background levels of PBMC-specific T cells were observed before (white bars) or after vaccination (grey bars).

[6] = test system: CD4^+CD25^int memory T-cell pool; conditions: after DAB389IL-2 administration; fluM1, CMV, tetanus toxoid
PBMC = assay: MTT viability of PBMC (bystander toxicity); conditions: DAB389IL-2 5 nM
[7] = 6-hour exposure, viability over 48 hours
[8] = 6 RCC patients, DAB389IL-2 plus RCC RNA-transfected DC
[9] = per patient, DAB389IL-2 4 days prior to tumor RNA-transfected DC vaccination

Question: What does the source list for denileukin diftitox [DAB389IL-2]?
Answer: concentration giving complete depletion of CD4^+CD25^high cells [1, 7]: 5 nM; concentration giving efficient killing of CD4^+CD25^high cells [1, 7]: 0.5 nM; cell viability of CD4^+CD25^high regulatory T cells ([1]; 24 hours following exposure): significant reduction in cell viability; 7-AAD staining of other CD4^+ T cells with lower or no CD25 expression [2]: only background levels of 7-AAD staining; concentration giving optimal killing of CD4^+/CD25^high Treg ([2]; 7-AAD staining): 5 nM; proliferation of responder cells ([3]; DAB389IL-2 added two days after initiation of the MLR): completely abrogated the proliferation of responder cells; inhibitory effect of Treg added to MLR ([3]; pre-incubation of Treg with DAB389IL-2 5 nM): significantly abrogated their inhibitory effect; Treg-mediated immunosuppressive activity [4]: abrogation of Treg-mediated immunosuppressive activity in vivo; change in CD8^+/CD25^+ or CD19^+/CD25^+ cells ([5]; one subject analyzed): no decrease; change in relative number of CD3+, CD4+, CD8+ T cells, B cells, monocytes/macrophages and NK cells ([5]; prior to and after treatment): no significant changes; median increase in tumor-specific CD4^+ T cells (tumor-specific T cells; [8]): 7.2 fold; median increase in tumor-specific CD8^+ T cells (tumor-specific T cells; [8]): 7.9 fold; tumor-specific T-cell response after DAB389IL-2 alone (tumor-specific T cells; DAB389IL-2 only, no vaccine): did not increase a tumor-specific CTL response in vivo; also recorded: did not significantly increase; tumor-specific (CD8^+) T cells vs vaccination alone (tumor-specific T cells; DAB389IL-2 plus vaccination compared with vaccine alone): significantly higher numbers of tumor-specific CD8^+ T cells; increase in tumor-specific CTL frequencies (tumor-specific T cells; Example 2, subjects receiving combined treatment): up to 16 fold; CD4^+ T-cell responses vs vaccination alone (tumor-specific T cells; combined therapy, RCC patients, p=0.055): trend towards improved CD4^+ T-cell responses; ELISPOT (Fold increase after vaccination) CD4^+ (tumor-specific T cells; [9]): 7.6 fold and 6.3 fold and 2.2 fold and 9.7 fold and 31.0 fold and 6.8 fold and 4.5 fold; ELISPOT (Fold increase after vaccination) CD8^+ (tumor-specific T cells; [9]): 16.0 fold and 12.5 fold and 5.4 fold and 7.4 fold and 7.8 fold (2×) and 8.0 fold; longitudinal vaccine-induced CD8^+ T-cell response (tumor-specific T cells; subject 02-DAB vs 11-RCC): significantly enhanced and also prolonged CD8^+ T-cell response; antigen-specific proliferative reactivities against recall antigens [6]: unchanged reactivities; PBMC viability over time (PBMC): no significant differences in PBMC viability
